Test results from patent US8598344B2, “CDKI pathway inhibitors and uses thereof” (Senex Biotechnology, priority 2009, dated 2013).
Read-outs that look alike come from different tables or passages of the source.

Assays:
[1] = test system: induction of transcription by p21 (CDKI pathway, CMV promoter-GFP) in HT1080 fibrosarcoma cells; test: Cellular assay for CDKI pathway inhibition: CMV-GFP induction by IPTG-inducible p21 in HT1080 reporter cells; type: cell-based, human
Procedure: Briefly, the reporter cell line described in the above-referenced application, which carries IPTG (isopropyl-β-thio-galactoside)-inducible p21 gene together with a p21-inducible promoter driving the expression of Green Fluorescent Protein (GFP) was plated in 96-well plates, at 2000 cells per well for the no-IPTG arm of the assay and at 5000 cells per well for the IPTG arm of the assay. To induce the maximal levels of p21, IPTG was added to 50 μM concentration. Serial 2-fold dilutions of the tested compounds were added in quadruplicates to wells with and without IPTG, ˜10 min after IPTG addition.
This assay is based on the induction of green fluorescent protein (GFP) expression from the cytomegalovirus (CMV) promoter in human HT1080 fibrosarcoma cells that express CDKI p21 from an isopropyl-(3-thio-galactoside (IPTG)-inducible promoter. The compound activity as a CDKI pathway inhibitor is measured by its ability to prevent the stimulation of the CMV promoter upon the addition of p21-inducing IPTG. CMV promoter activity is measured by the ratio of GFP fluorescence to the relative cell number, as determined by staining cellular DNA with Hoechst 33342. This assay was conducted in two modes. […]

BTK = target: T1, BTK (Homo sapiens, UniProt Q06187); test: KinomeScan competition binding assay; settings: 10 μM compound
T1 construct: purchased KinomeScan, a division of Ambit Biosciences
T1 sequence (Q06187 whole entry): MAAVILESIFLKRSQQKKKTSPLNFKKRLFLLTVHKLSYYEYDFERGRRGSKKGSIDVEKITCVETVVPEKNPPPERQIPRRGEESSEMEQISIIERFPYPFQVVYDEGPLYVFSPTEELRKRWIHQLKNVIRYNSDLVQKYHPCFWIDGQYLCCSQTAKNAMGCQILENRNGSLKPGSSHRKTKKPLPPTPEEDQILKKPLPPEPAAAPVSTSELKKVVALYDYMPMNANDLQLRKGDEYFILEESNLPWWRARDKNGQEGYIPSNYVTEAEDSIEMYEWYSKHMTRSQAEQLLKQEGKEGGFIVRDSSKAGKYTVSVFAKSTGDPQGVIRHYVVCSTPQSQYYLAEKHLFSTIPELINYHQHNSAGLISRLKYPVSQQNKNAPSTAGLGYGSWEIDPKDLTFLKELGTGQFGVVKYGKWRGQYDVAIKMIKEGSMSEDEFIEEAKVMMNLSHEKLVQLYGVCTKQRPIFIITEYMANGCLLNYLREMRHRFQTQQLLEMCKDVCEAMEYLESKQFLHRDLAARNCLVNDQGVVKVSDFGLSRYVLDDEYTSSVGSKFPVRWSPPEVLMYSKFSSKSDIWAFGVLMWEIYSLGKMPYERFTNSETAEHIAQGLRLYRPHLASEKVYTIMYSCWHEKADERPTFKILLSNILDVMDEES
Source text: (§1) This similarity led us to test SNX14 for the ability to inhibit 285 kinases, using the services of KinaseProfiler of Millipore Corporation (285 kinases). […] The KINOMEscan assay has been described in detail in Fabian et al., Nat. Biotechnol. 23: 329 (2005) and Karaman et al., Nat. Biotechnol. 26: 127 (2008).
(§2) The KinomeScan assay is based on a competition binding assay that quantitatively measures the ability of a compound to compete with an immobilized, ATP site directed ligand. The assay is performed by combining three components: DNA-tagged kinase; immobilized ligand; and a test compound. The ability of the test compound to compete with the immobilized ligand is measured via quantitative PCR of the DNA tag. […] The CDKs tested by Millipore for inhibition with SNX14 included CDK1, CDK2, CDK3, CDK5, CDK7 and CDK9; none of these were inhibited to less than 49 percent of control (POC) activity. The CDKs tested by KinomeScan for the effect of Compound 1 included CDK2, CDK3, CDK4, CDK5, CDK7, CDK8, CDK9 and CDK19; aside from CDK8 and CDK19, the strongest inhibited CDK was CDK7 (33% POC binding). To determine the inhibition of which kinases correlates with the biological activity of SNX2-class compounds, we tested eight additional compounds of the SNX2 family, which gave different IC50 values in the cellular assays, for the ability to affect 24 kinases that were most susceptible to compound 1, through the services of KinomeScan. […] We have also determined the binding constant (Kd) for SNX14, compound 1, compound 20, compound 26, compound 43 and compound 14 in kinase assays for CDK8 and CDK19 (Table 1).

PIP5K2C = target: T2, PIP5K2C (Homo sapiens, UniProt Q8TBX8); test: KinomeScan competition binding assay; settings: 10 μM compound
T2 construct: purchased KinomeScan, a division of Ambit Biosciences
T2 sequence (Q8TBX8 1-421): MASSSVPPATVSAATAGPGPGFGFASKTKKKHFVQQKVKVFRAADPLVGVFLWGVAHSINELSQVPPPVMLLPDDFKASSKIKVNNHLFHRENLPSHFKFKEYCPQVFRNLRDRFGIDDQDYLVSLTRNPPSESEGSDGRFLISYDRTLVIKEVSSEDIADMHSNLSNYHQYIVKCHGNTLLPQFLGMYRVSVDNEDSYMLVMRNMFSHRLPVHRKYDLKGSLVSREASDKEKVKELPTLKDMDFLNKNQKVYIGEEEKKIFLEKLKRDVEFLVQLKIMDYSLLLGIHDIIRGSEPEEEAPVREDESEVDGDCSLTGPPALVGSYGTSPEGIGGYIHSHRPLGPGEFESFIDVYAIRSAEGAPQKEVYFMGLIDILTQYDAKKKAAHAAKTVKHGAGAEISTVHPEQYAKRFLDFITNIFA
Source text: as §1, §2

CDK19 = target: T3, CDK19 (Homo sapiens, UniProt Q9BWU1); test: KinomeScan competition binding assay; settings: for inhibition of CDK19: 10 μM; for POC ligand binding, CDK19: 10 μM compound; for Kd: read-out: CDK19 inhibition (Kd)
T3 construct: purchased KinomeScan, a division of Ambit Biosciences
T3 sequence (Q9BWU1 whole entry): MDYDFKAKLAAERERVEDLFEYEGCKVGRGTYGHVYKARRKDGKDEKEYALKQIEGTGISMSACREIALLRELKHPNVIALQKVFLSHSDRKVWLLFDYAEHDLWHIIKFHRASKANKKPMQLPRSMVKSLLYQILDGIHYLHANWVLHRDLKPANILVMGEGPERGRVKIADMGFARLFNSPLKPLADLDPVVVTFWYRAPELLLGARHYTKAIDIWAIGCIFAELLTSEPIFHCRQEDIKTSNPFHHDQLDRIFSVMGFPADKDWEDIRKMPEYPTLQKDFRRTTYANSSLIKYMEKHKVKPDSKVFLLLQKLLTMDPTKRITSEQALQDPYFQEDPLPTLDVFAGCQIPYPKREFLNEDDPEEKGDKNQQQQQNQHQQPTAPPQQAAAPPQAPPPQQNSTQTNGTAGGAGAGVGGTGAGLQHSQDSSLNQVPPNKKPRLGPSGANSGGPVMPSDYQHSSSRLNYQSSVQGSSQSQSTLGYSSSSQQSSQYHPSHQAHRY
Source text: as §1, §2

MAP4K2 = target: T4, MAP4K2 (Homo sapiens, UniProt Q12851); test: KinomeScan competition binding assay; settings: 10 μM compound
T4 construct: purchased KinomeScan, a division of Ambit Biosciences
T4 sequence (Q12851 1-820): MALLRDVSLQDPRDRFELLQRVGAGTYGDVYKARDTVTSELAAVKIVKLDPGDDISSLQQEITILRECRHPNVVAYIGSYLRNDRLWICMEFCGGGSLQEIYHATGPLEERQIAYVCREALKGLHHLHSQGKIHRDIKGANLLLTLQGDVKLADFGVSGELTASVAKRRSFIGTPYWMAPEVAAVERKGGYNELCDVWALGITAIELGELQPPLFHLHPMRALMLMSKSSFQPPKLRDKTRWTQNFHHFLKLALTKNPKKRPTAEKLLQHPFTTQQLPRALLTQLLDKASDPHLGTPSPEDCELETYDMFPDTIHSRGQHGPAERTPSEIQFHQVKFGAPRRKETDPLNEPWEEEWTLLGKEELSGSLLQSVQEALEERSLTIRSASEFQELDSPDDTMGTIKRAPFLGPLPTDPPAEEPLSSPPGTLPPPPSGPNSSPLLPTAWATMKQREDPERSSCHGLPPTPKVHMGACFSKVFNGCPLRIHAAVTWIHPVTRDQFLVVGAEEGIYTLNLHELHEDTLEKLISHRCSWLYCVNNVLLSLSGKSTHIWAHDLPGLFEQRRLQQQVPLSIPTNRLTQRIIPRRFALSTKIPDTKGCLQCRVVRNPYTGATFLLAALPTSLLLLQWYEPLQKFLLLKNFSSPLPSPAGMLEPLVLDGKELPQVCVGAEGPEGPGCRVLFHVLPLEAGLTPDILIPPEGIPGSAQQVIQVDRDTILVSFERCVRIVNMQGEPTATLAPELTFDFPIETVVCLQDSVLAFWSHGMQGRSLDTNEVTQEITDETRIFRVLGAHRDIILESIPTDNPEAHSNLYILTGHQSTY
Source text: as §1, §2

[2] = Table 1, IC50 calculated on the basis of the maximal inhibition produced by the highest doses, IPTG mode (50 μM or 2 μM) not stated, read-out: Cell-based assay (IC50)
[3] = Table 2, calculated assuming maximal effect = zero GFP/Hoechst, no unit in table, μM from FIG. 8 legend, no activity at 40 μM given as >100, read-out: IC50 in the cellular assay

Compound	IC50 [1, 2]	IC50 [1, 3]	POC ligand binding, BTK (BTK)	POC ligand binding, PIP5K2C (PIP5K2C)	inhibition of CDK19 (CDK19)	POC ligand binding, CDK19 (CDK19)	Kd (CDK19)	POC ligand binding, MAP4K2 (MAP4K2)	POC ligand binding, PIP5K2C (PIP5K2C; 10 µM)	POC ligand binding, CDK19 (CDK19; 10 µM)	POC ligand binding, MAP4K2 (MAP4K2; 10 µM)	IC50 ([1]; read-out: IC50, p21 induced by 8 μM IPTG, 8 μM IPTG, 72 hours)
N#Cc1ccc2ncnc(NCCc3ccc4ccccc4c3)c2c1 [compound 26]	0.769 µM	1.15 µM	100 POC	39 POC	94.6%	5.6 POC	0.16 µM	28 POC	–	–	–	–
N#Cc1ccc2ncnc(NCc3ccc4ccccc4c3)c2c1 [compound 14]	2.54 µM	1.2 µM	100 POC	–	–	–	1.1 µM	–	16 POC	0.1 POC	16 POC	–
N#Cc1ccc2ncnc(NCc3ccc4ccccc4c3)c2c1 [compound 43]	0.22 µM	0.95 µM	100 POC	–	–	–	0.19 µM	–	4 POC	0.25 POC	28 POC	–
CCCNc1ncnc2ccc(N3CCOCC3)cc12 [compound 46]	–	> 100 µM	81 POC	61 POC	–	100 POC	–	82 POC	–	–	–	–
N#Cc1ccc2ncnc(NCc3ccc(Cl)cc3)c2c1 [compound 20]	0.199 µM	0.6 µM	100 POC	2.4 POC	–	0 POC	0.099 µM	21 POC	–	–	–	–
CC(C)CNc1ncnc2ccc(C(F)(F)F)cc12 [compound 45]	–	12.8 µM	100 POC	60 POC	–	21 POC	–	12 POC	–	–	–	–
COc1ccc2ncnc(NCCc3ccccc3)c2c1 [compound 44]	–	11 µM	100 POC	59 POC	–	9.2 POC	–	35 POC	–	–	–	–
N#Cc1ccc2ncnc(NCCc3ccccc3)c2c1 [compound 1]	0.641 µM	1.3 µM	15 POC	1.2 POC	> 99%	0.05 POC	0.31 µM	12 POC	–	–	–	0.57 µM
